Experimental data reported in US20050282743A1, “Molecular interactions in cells” (Arbor Vita Corporation, priority 2001, published 2005).
Ends that are not written are not given here. Peptide text beside a SMILES is read from it. * marks the point of attachment. Biotin = O=C1N[C@H]2[C@H](CS[C@H]2CCCCC(=O)*)N1

Columns and labels:
Test in all cases: G' assay (10 uM PL peptide), results of TABLE 7 and TABLE 12
Format in all cases: binding
[1] = target: T1, PDZ protein (GST-PDZ fusion) (Homo sapiens, UniProt Q96JH8); settings: PDZ FLJ 10324, PDZ Domain 1
T1 construct: made in house; host or cells: E. coli (DH5alpha, BL21 or JM109)
T1 sequence (Q96JH8 1-1075): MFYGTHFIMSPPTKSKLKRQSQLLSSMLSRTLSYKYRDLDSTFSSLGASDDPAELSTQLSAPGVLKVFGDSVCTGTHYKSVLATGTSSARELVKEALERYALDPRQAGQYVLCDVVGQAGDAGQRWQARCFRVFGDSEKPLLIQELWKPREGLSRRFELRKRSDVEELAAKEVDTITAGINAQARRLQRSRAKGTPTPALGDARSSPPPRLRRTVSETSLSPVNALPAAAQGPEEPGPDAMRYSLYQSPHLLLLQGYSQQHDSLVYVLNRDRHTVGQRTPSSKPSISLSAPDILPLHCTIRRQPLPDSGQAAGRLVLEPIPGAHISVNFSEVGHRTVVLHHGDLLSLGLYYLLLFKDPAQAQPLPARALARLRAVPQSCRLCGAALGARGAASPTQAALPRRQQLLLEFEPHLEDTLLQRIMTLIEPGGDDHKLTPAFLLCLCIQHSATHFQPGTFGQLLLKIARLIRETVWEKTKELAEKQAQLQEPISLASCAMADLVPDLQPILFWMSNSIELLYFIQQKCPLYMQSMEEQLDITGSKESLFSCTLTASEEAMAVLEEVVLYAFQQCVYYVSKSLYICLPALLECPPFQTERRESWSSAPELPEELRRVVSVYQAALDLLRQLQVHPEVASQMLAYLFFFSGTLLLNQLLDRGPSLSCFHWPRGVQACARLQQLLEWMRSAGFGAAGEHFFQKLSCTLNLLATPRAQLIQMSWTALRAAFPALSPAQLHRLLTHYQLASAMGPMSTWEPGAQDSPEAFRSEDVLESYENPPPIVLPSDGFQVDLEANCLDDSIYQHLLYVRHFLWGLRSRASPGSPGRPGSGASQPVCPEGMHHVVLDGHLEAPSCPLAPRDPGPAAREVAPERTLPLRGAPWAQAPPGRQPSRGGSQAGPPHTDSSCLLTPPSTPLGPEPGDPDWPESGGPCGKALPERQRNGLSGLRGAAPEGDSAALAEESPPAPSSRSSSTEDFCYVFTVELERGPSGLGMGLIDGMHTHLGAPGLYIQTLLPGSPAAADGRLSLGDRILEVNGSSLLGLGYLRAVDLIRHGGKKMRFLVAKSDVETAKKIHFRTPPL
In short: (§1)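 Same steps as the G-zero format, apart from a peptide concentration of 10 uM in place of 20 uM in step 2. Amino-terminally biotinylated PL peptides bind GST-PDZ fusions, and retained peptide is quantified by 450 nm absorbance.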

[2] = target: T2, PDZ protein (GST-PDZ fusion) (Homo sapiens, UniProt Q13796); settings: PDZ hAPXL, PDZ Domain 1
T2 construct: made in house; host or cells: E. coli (DH5alpha, BL21 or JM109)
T2 sequence (Q13796 whole entry, the tested form may be a part): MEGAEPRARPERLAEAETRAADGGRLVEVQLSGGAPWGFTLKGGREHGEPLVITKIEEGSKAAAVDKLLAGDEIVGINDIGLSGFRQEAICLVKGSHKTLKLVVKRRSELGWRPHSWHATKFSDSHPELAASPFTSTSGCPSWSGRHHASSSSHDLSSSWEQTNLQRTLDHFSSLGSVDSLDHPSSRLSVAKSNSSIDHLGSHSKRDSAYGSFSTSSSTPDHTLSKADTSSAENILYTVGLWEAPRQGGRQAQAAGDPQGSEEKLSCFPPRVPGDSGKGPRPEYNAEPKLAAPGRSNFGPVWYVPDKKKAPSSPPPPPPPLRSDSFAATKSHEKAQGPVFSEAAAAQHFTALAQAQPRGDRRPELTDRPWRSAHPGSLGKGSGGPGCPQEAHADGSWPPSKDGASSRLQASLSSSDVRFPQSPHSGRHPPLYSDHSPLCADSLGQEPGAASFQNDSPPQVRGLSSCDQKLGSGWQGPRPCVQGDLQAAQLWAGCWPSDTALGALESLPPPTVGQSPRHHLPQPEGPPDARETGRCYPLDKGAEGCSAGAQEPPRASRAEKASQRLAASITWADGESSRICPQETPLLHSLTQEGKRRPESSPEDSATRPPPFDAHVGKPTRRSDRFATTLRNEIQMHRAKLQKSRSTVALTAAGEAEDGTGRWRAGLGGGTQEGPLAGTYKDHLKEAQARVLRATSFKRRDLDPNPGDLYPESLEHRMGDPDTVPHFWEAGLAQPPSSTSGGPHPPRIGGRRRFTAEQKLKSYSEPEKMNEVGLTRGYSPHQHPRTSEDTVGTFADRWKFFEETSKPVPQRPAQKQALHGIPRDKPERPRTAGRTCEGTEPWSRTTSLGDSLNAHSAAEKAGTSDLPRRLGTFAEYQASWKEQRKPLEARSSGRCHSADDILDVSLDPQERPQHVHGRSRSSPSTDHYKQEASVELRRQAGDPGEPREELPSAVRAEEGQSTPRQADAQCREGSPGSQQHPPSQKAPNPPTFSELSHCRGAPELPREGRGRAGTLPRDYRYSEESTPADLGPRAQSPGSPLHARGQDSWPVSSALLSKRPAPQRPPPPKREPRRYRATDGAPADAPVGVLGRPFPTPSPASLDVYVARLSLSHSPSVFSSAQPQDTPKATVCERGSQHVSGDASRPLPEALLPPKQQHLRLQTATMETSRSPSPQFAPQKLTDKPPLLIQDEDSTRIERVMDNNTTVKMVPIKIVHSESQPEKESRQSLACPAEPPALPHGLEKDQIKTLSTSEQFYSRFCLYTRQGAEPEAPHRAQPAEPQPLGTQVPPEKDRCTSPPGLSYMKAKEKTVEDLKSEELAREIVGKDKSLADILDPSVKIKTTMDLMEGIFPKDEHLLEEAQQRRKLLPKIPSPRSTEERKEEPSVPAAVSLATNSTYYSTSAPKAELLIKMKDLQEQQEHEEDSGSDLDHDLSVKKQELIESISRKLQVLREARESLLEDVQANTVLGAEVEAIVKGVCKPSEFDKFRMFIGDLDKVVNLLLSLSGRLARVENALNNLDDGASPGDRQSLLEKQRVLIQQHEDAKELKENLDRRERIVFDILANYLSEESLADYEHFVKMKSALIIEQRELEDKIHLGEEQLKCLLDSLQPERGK
In short: as §1

[3] = target: T3, PDZ protein (GST-PDZ fusion) (Homo sapiens, UniProt Q92796); settings: PDZ NeDLG
T3 construct: made in house; host or cells: E. coli (DH5alpha, BL21 or JM109)
T3 sequence (Q92796 1-817): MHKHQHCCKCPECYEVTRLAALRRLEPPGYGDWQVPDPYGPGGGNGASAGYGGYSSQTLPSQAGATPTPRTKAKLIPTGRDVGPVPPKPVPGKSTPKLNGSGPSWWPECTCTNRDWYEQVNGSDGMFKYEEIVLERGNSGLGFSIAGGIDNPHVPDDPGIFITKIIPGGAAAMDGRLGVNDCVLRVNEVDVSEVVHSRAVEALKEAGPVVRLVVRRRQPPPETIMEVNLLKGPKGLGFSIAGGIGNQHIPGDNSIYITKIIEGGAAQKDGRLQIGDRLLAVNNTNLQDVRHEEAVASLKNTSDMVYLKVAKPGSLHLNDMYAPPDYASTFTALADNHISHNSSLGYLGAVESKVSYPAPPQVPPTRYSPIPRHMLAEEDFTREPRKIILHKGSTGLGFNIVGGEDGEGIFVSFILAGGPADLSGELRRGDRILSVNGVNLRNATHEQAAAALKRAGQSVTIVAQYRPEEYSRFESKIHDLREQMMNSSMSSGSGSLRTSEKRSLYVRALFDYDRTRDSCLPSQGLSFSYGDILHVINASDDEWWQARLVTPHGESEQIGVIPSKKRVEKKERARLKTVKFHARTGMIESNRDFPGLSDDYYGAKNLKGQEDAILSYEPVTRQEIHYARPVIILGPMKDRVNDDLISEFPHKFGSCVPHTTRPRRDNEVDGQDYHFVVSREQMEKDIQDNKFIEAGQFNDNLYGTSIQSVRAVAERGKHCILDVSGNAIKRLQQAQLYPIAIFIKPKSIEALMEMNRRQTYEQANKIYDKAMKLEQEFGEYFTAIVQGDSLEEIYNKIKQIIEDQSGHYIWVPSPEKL
In short: as §1

| Molecule | Classification [1] | Classification [2] | Classification ([3]; PDZ Domain 2) | also measured |
| --- | --- | --- | --- | --- |
| ELLQFCRTPNPALKNGQYWV (Biotin-ELLQFCRTPNPALKNGQYWV) | 5 (A450 nm of 4 more than 2× repeated) | 3 (A450 nm 2-3) | – | – |
| CC(C)C[C@H](NC(=O)[C@H](C)NC(=O)[C@@H](NC(=O)[C@@H](NC(=O)[C@H](Cc1c[nH]cn1)NC(=O)[C@H](CC(C)C)NC(=O)CNC(=O)[C@H](CCC(N)=O)NC(=O)CNC(=O)CNC(=O)[C@H](C)NC(=O)[C@H](C)NC(=O)[C@H](CCCNC(=N)N)NC(=O)[C@H](C)NC(=O)[C@H](CO)NC(=O)[C@H](CC(=O)O)NC(=O)[C@H](CC(=O)O)NC(=O)[C@H](Cc1c[nH]c2ccccc12)NC(=O)[C@H](C)NC(=O)CCCC[C@@H]1SC[C@@H]2NC(=O)N[C@@H]21)C(C)C)[C@@H](C)O)C(=O)O [LPAP] (Biotin-AWDDSARAAGGQGLHVTAL-OH; C-terminus assumed) | 1 (A450 nm 0-1) | 1 (A450 nm 0-1) | – | – |
| CSCC[C@H](NC(=O)[C@H](C)NC(=O)[C@H](CCCNC(=N)N)NC(=O)CNC(=O)[C@@H](NC(=O)[C@H](Cc1c[nH]c2ccccc12)NC(=O)[C@H](CCCNC(=N)N)NC(=O)CNC(=O)CCCC[C@@H]1SC[C@@H]2NC(=O)N[C@@H]21)[C@@H](C)O)C(=O)N[C@@H](CO)C(=O)N[C@@H](C)C(=O)N[C@@H](Cc1c[nH]c2ccccc12)C(=O)N[C@@H](CCCCN)C(=O)N1CCC[C@H]1C(=O)N[C@H](C(=O)N[C@@H](CCCNC(=N)N)C(=O)N[C@@H](CCCNC(=N)N)C(=O)N[C@@H](CCC(=O)O)C(=O)N[C@H](C(=O)N[C@@H](CCC(=O)O)C(=O)N[C@H](C(=O)O)C(C)C)[C@@H](C)O)[C@@H](C)O [HPV E6 #35 (modified)] (Biotin-GRWTGRAMSAWKPTRRETEV-OH; C-terminus assumed) | 1 (A450 nm 0-1) | – | 5 (A450 nm of 4 more than 2× repeated) | Classification ([3]; PDZ Domain 1): 5 (A450 nm of 4 more than 2× repeated); Classification ([3]; PDZ Domain 1, 2): 5 (A450 nm of 4 more than 2× repeated); Classification ([3]; PDZ Domain 3): 5 (A450 nm of 4 more than 2× repeated) |
| ALVLIAFCIIRRRPSAYQAL (Biotin-ALVLIAFCIIRRRPSAYQAL) [CD68] | 1 (A450 nm 0-1) | 2 (A450 nm 1-2) | – | – |
| A2AA_HUMAN (modified) (Biotin-HDFRRAFKKILARGDRKRIV; not fully specified) | 1 (A450 nm 0-1) | 1 (A450 nm 0-1) | – | – |
| ISGTPTSTMVHGMTSSSSVV (Biotin-ISGTPTSTMVHGMTSSSSVV) [Clasp-2] | 1 (A450 nm 0-1) | – | 1 (A450 nm 0-1) | – |
| PPATPSPRLALPAHHNATRL (Biotin-PPATPSPRLALPAHHNATRL) [Na+/Pi cotransporter 2] | 1 (A450 nm 0-1) | 1 (A450 nm 0-1) | – | – |
| LASKSAEEGKQIPDSLSTDL (Biotin-LASKSAEEGKQIPDSLSTDL) [Dock2] | 1 (A450 nm 0-1) | 2 (A450 nm 1-2) | – | – |
| SLKPGTVLPPPPYRHRNTVV (Biotin-SLKPGTVLPPPPYRHRNTVV) [ErbB-4 receptor] | 1 (A450 nm 0-1) | – | – | Classification ([3]; PDZ Domain 1, 2): 1 (A450 nm 0-1) |
| CC(C)C[C@H](NC(=O)[C@H](C)NC(=O)[C@H](CO)NC(=O)CNC(=O)[C@@H](NC(=O)CCCC[C@@H]1SC[C@@H]2NC(=O)N[C@@H]21)[C@@H](C)O)C(=O)N[C@@H](CCC(N)=O)C(=O)N[C@@H](C)C(=O)N[C@@H](Cc1c[nH]c2ccccc12)C(=O)N[C@@H](CCCNC(=N)N)C(=O)N[C@@H](Cc1c[nH]cn1)C(=O)N[C@H](C(=O)N[C@@H](CO)C(=O)N[C@@H](CCCNC(=N)N)C(=O)N[C@@H](CCC(N)=O)C(=O)N[C@@H](C)C(=O)N[C@H](C(=O)N[C@@H](CCC(=O)O)C(=O)N[C@@H](CO)C(=O)N[C@H](C(=O)N[C@H](C(=O)O)C(C)C)[C@@H](C)O)[C@@H](C)O)[C@@H](C)O [HPV E6 #66 (modified)] (Biotin-TGSALQAWRHTSRQATESTV-OH; C-terminus assumed) | 1 (A450 nm 0-1) | 1 (A450 nm 0-1) | 4 (A450 nm 3-4) | Classification ([3]; PDZ Domain 1): 1 (A450 nm 0-1); Classification ([3]; PDZ Domain 1, 2): 5 (A450 nm of 4 more than 2× repeated) |
| CC[C@H](C)[C@H](NC(=O)[C@H](CCCCN)NC(=O)[C@@H](NC(=O)[C@H](CO)NC(=O)[C@@H]1CCCN1C(=O)[C@H](Cc1ccccc1)NC(=O)[C@@H](NC(=O)[C@@H](NC(=O)[C@H](CCCNC(=N)N)NC(=O)[C@H](CCC(=O)O)NC(=O)[C@H](CC(C)C)NC(=O)[C@H](CC(C)C)NC(=O)[C@H](CC(C)C)NC(=O)[C@@H](NC(=O)CNC(=O)[C@@H](NC(=O)CCCC[C@@H]1SC[C@@H]2NC(=O)N[C@@H]21)C(C)C)[C@@H](C)O)C(C)C)[C@@H](C)CC)C(C)C)C(=O)N[C@@H](C)C(=O)N[C@H](C(=O)N[C@@H](CC(C)C)C(=O)N[C@H](C(=O)O)C(C)C)[C@@H](C)O [Adenovirus E4 Type9] | – | – | – | Classification ([3]; PDZ Domain 1, 2, PL peptide 10 uM): 5 (A450 nm of 4 more than 2× repeated); Classification ([3]; PDZ Domain 1, PL peptide 10 uM): 1 (A450 nm 0-1); Classification ([3]; PDZ Domain 2, Protein Optimal Conc 5): 5 (A450 nm of 4 more than 2× repeated); Classification ([1]; Protein Optimal Conc 5): 3 (A450 nm 2-3) |
| CC[C@H](C)[C@H](NC(=O)[C@H](CCC(N)=O)NC(=O)CCCC[C@@H]1SC[C@@H]2NC(=O)N[C@@H]21)C(=O)N[C@@H](CO)C(=O)N1CCC[C@H]1C(=O)NCC(=O)NCC(=O)N[C@@H](CC(C)C)C(=O)N[C@@H](CCC(=O)O)C(=O)N1CCC[C@H]1C(=O)N1CCC[C@H]1C(=O)N[C@@H](CO)C(=O)N[C@@H](CCC(=O)O)C(=O)N[C@@H](CCCCN)C(=O)N[C@@H](Cc1c[nH]cn1)C(=O)N[C@@H](Cc1ccccc1)C(=O)N[C@@H](CCCNC(=N)N)C(=O)N[C@@H](CCC(=O)O)C(=O)N[C@H](C(=O)N[C@@H](CCC(=O)O)C(=O)N[C@H](C(=O)O)C(C)C)[C@@H](C)O [Tax] | 1 (A450 nm 0-1) | – | 5 (A450 nm of 4 more than 2× repeated) | Classification ([3]; PDZ Domain 3): 5 (A450 nm of 4 more than 2× repeated) |
| PYSELNYETSHYPASPDSWV (Biotin-PYSELNYETSHYPASPDSWV) [catenin - delta 2] | 3 (A450 nm 2-3) | – | – | Classification ([3]; PDZ Domain 3): 1 (A450 nm 0-1) |
